According to paper PMC7311426, “An amphipathic peptide with antibiotic activity against multidrug-resistant Gram-negative bacteria” (Nature Communications, 2020):
Converted amounts (≈) assume the structure as drawn. Like-named read-outs stand apart in the source and are kept apart here. Residues, ends and D or L forms follow the SMILES beside them.

Experiments:
Test in all cases: microbe, parasite or virus in culture
[1] = tested on: S. aureus; settings: BMD; range over strains and media
In short: (§1)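 Broth microdilution in MHB, 2-fold 12-point series from 128 or 64 down to 0.06 or 0.03 μg mL^−1, 5 × 10^5 CFU mL^−1. Extra runs in CAMHB per CLSI and in MHB with 1% agarose; n ≥ 6.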

[2] = tested on: S. enterica Typhi; settings: Typhi
In short: as §1

[3] = tested on: A. baumannii; settings: A. baumannii Greece CI, XDR; PmxR; MHB; mode of 6 replicates
In short: as §1

[4] = tested on: E. coli
In short: as §1

[5] = tested on: K. pneumoniae; settings: for MIC, broth microdilution: plate 1, colony 1; for MIC K. pneumoniae ATCC BAA-2146: NDM-1 strain, NBS Corning 3641 plate
In short: as §1

[6] = tested on: P. aeruginosa
In short: as §1

CC(C)[C@@H]1NC(=O)[C@H](Cc2ccc(O)cc2)NC(=O)[C@H](Cc2c[nH]c3ccccc23)NC(=O)[C@@H](NC(=O)[C@H](Cc2ccccc2)NC(=O)CN)CSSC[C@@H](C(=O)N[C@@H](CC(N)=O)C(=O)O)NC(=O)[C@H](CCCNC(=N)N)NC(=O)[C@H](CCCNC(=N)N)NC(=O)[C@H](Cc2ccc(O)cc2)NC(=O)[C@@H]2CSSC[C@H](NC1=O)C(=O)N[C@@H](C)C(=O)N[C@@H](CCCNC(=N)N)C(=O)N[C@@H](CCCNC(=N)N)C(=O)N[C@@H](CC(N)=O)C(=O)NCC(=O)N[C@@H](C)C(=O)N[C@@H](CCCNC(=N)N)C(=O)N[C@@H](C(C)C)C(=O)N2 [AA139] (HELM PEPTIDE1{G.F.C.W.Y.V.C.A.R.R.N.G.A.R.V.C.Y.R.R.C.N}$PEPTIDE1,PEPTIDE1,3:R3-20:R3|PEPTIDE1,PEPTIDE1,7:R3-16:R3$$$V2.0)
MIC against Staphylococcus aureus [1]: 32 to 64 µg/mL | BMD MIC [2]: 0.5 µg/mL | BMD MIC [3]: 0.5 µg/mL | MIC against ESBL producing E. coli DSA 443 [4]: 0.5 µg/mL (≈ 0.196 µM) | MIC, broth microdilution [4]: 0.06 µg/mL (≈ 0.0235 µM) | MIC, broth microdilution ([4]; E. coli AUD172 spontaneous mutant, AA139 selection 4X, plate 2, colony 2, drug-free passage 1): 0.12 µg/mL (≈ 0.0471 µM) | MIC, broth microdilution ([4]; E. coli AUD172 spontaneous mutant, AA139 selection 4X, plate 2, colony 2, drug-free passage 5): 0.25 µg/mL (≈ 0.098 µM) | BMD MIC ([4]; E. coli ESBL20150072, mcr-1 pos, ESBL, CAMHB, AA139): 0.5 µg/mL | BMD MIC [5]: 0.5 µg/mL | MIC K. pneumoniae BAA-2146 (NDM-1) ([5]; BMD, MHB, 18-20 h 37 °C, mode of ≥6 independent biological replicates): 1 µg/mL (≈ 0.392 µM) | MIC, broth microdilution ([5]; K. pneumoniae 3010 spontaneous mutant, AA139 selection 4X, drug-free passage 1): 2, 2 µg/mL | MIC, broth microdilution ([5]; K. pneumoniae 3010 spontaneous mutant, AA139 selection 4X, drug-free passage 5): 2, 2 µg/mL | MIC, broth microdilution ([5]; K. pneumoniae 3010 spontaneous mutant, AA139 selection 8X, drug-free passage 1): 2, 2 µg/mL | MIC, broth microdilution ([5]; K. pneumoniae 3010 spontaneous mutant, AA139 selection 8X, drug-free passage 5): 2, 2 µg/mL | BMD MIC ([5]; K. pneumoniae ATCC 700603 (K6), MDR, OXA-2/SHV-18, CAMHB, mode of 6 replicates): 2 µg/mL | BMD MIC ([5]; K. pneumoniae ATCC 700603 (K6), MDR, OXA-2/SHV-18, MHB, mode of 6 replicates): 0.5 µg/mL | BMD MIC ([5]; K. pneumoniae BAA-2146, MDR, ESBL, NDM-1 pos, MHB, mode of 6 replicates): 1 µg/mL | BMD MIC ([5]; K. pneumoniae Greece CI 8_GR_13, XDR, KPC-2, PmxR, MHB, mode of 6 replicates): 16 µg/mL | MIC, broth microdilution ([5]; K. pneumoniae ST258 spontaneous mutant, AA139 selection 4X, drug-free passage 1): 2, 2 µg/mL | MIC, broth microdilution ([5]; K. pneumoniae ST258 spontaneous mutant, AA139 selection 4X, drug-free passage 5): 2, 2 µg/mL | MIC K. pneumoniae ATCC BAA-2146 ([5]; CAMHB, replicate 1): 1 µg/mL (≈ 0.392 µM) | MIC K. pneumoniae ATCC BAA-2146 ([5]; CAMHB, replicate 2): 1 µg/mL (≈ 0.392 µM) | MIC K. pneumoniae ATCC BAA-2146 ([5]; CAMHB, replicate 3): 1 µg/mL (≈ 0.392 µM) | MIC K. pneumoniae ATCC BAA-2146 ([5]; CAMHB, replicate 4): 2 µg/mL (≈ 0.784 µM) | MIC K. pneumoniae ATCC BAA-2146 ([5]; CAMHB, replicate 5): 1 µg/mL (≈ 0.392 µM) | MIC K. pneumoniae ATCC BAA-2146 ([5]; CAMHB, replicate 6): 1 µg/mL (≈ 0.392 µM) | MIC K. pneumoniae ATCC BAA-2146 ([5]; CAMHB, replicate 7): 0.5 µg/mL (≈ 0.196 µM) | MIC K. pneumoniae ATCC BAA-2146 ([5]; CAMHB, replicate 8): 0.5 µg/mL (≈ 0.196 µM) | MIC K. pneumoniae ATCC BAA-2146 ([5]; CAMHB, replicate 9): 0.5 µg/mL (≈ 0.196 µM) | MIC K. pneumoniae ATCC BAA-2146 ([5]; CAMHB, replicate 10): 0.25 µg/mL (≈ 0.098 µM) | MIC K. pneumoniae ATCC BAA-2146 ([5]; CAMHB, replicate 11): 0.5 µg/mL (≈ 0.196 µM) | MIC K. pneumoniae ATCC BAA-2146 ([5]; CAMHB, replicate 12): 0.5 µg/mL (≈ 0.196 µM) | MIC K. pneumoniae ATCC BAA-2146 ([5]; CAMHB, replicate 13): 1 µg/mL (≈ 0.392 µM) | MIC K. pneumoniae ATCC BAA-2146 ([5]; CAMHB, replicate 14): 1 µg/mL (≈ 0.392 µM) | MIC against P. aeruginosa (ATCC 27853) [6]: 1.0 µg/mL (≈ 0.392 µM) | MIC, broth microdilution [6]: 1 µg/mL (≈ 0.392 µM) | MIC, broth microdilution ([6]; P. aeruginosa ATCC 27853 spontaneous mutant, AA139 selection 4X, plate 1, colony 1, drug-free passage 1): 1, 1 µg/mL | MIC, broth microdilution ([6]; P. aeruginosa ATCC 27853 spontaneous mutant, AA139 selection 4X, plate 1, colony 1, drug-free passage 5): 1, 1 µg/mL | MIC, broth microdilution ([6]; P. aeruginosa ATCC 27853 spontaneous mutant, AA139 selection 4X, plate 1, colony 2, drug-free passage 1): 1, 1 µg/mL | MIC, broth microdilution ([6]; P. aeruginosa ATCC 27853 spontaneous mutant, AA139 selection 4X, plate 1, colony 2, drug-free passage 5): 1, 1 µg/mL | MIC, broth microdilution ([6]; P. aeruginosa ATCC 27853 spontaneous mutant, AA139 selection 4X, plate 1, colony 3, drug-free passage 1): 1, 1 µg/mL | MIC, broth microdilution ([6]; P. aeruginosa ATCC 27853 spontaneous mutant, AA139 selection 4X, plate 1, colony 3, drug-free passage 5): 1, 1 µg/mL | MIC, broth microdilution ([6]; P. aeruginosa ATCC 27853 spontaneous mutant, AA139 selection 4X, plate 1, colony 4, drug-free passage 1): 2 µg/mL (≈ 0.784 µM) | MIC, broth microdilution ([6]; P. aeruginosa ATCC 27853 spontaneous mutant, AA139 selection 4X, plate 1, colony 4, drug-free passage 5): 1 µg/mL (≈ 0.392 µM) | MIC, broth microdilution ([6]; P. aeruginosa ATCC 27853 spontaneous mutant, AA139 selection 4X, plate 1, colony 5, drug-free passage 1): 2, 2 µg/mL | MIC, broth microdilution ([6]; P. aeruginosa ATCC 27853 spontaneous mutant, AA139 selection 4X, plate 1, colony 5, drug-free passage 5): 2, 2 µg/mL | MIC, broth microdilution ([6]; P. aeruginosa ATCC 27853 spontaneous mutant, AA139 selection 4X, plate 1, colony 6, drug-free passage 1): 1, 1 µg/mL | MIC, broth microdilution ([6]; P. aeruginosa ATCC 27853 spontaneous mutant, AA139 selection 4X, plate 1, colony 6, drug-free passage 5): 1, 1 µg/mL | MIC, broth microdilution ([6]; P. aeruginosa ATCC 27853 spontaneous mutant, AA139 selection 4X, plate 2, colony 1, drug-free passage 1): 1, 1 µg/mL | MIC, broth microdilution ([6]; P. aeruginosa ATCC 27853 spontaneous mutant, AA139 selection 4X, plate 2, colony 1, drug-free passage 5): 1, 1 µg/mL | MIC, broth microdilution ([6]; P. aeruginosa ATCC 27853 spontaneous mutant, AA139 selection 4X, plate 2, colony 2, drug-free passage 1): 1, 1 µg/mL | MIC, broth microdilution ([6]; P. aeruginosa ATCC 27853 spontaneous mutant, AA139 selection 4X, plate 2, colony 2, drug-free passage 5): 1, 1 µg/mL | MIC, broth microdilution ([6]; P. aeruginosa ATCC 27853 spontaneous mutant, AA139 selection 4X, plate 2, colony 3, drug-free passage 1): 1 µg/mL (≈ 0.392 µM) | MIC, broth microdilution ([6]; P. aeruginosa ATCC 27853 spontaneous mutant, AA139 selection 4X, plate 2, colony 3, drug-free passage 5): 0.5 µg/mL (≈ 0.196 µM)
